The nature of data set [1]: Human liver microsome stability test. The class given is in vitro ADME. Conditions: pH 7.4; human liver microsomes 0.5 mg/mL, 1 µM compound, NADPH, 37 °C. The procedure:
Preparation of compound working solutions: A high-concentration stock solution of the subject and control drug verapamil powder was prepared in DMSO and diluted to a working solution of 100 µM with DMSO before use, with a final concentration of 1 µM of the subject and verapamil.
Preparation of phosphate buffer salt (100 mM, pH 7.4): 7.098 g of disodium hydrogen phosphate was weighed and dissolved ultrasonically in 500 mL of purified water as solution A. 3.400 g of potassium dihydrogen phosphate was weighed and dissolved ultrasonically in 250 mL of purified water as solution B. Solution B was added to the inside of solution A to give a pH of 7.4.
Preparation of 10 mM NADPH: An appropriate amount of NADPH is now weighed before the experiment and a working solution of 10 mM concentration is prepared from phosphate solution.
Preparation of the incubation system: The incubation system was prepared according to the following table, and the incubation system was preheated in a water bath at 37 °C for 10 minutes before use.
Transfer 25 µL of NADPH or phosphate buffer salt to the above incubation system and add 2.5 µL of 100 µM subject or verapamil. For NADPH-added samples, double-parallel preparations were performed; for NADPH-negative samples, single-parallel preparations were performed.
30 µL of the suspension was taken at 0.5, 5, 15, 30, and 60 min, respectively. The reaction was terminated by adding 150 µL of acetonitrile containing the internal standard and vortexed for 10 min.
This was followed by centrifugation at 3220 g for 40 min for protein precipitation. 100 µL of supernatant was transferred to the injection plate and mixed with 100 µL of pure water for UPLC-MS/MS analysis.
All data calculations were performed by Microsoft Excel software. Peak areas were detected by extracted ion mapping. The in vitro half-life (t1/2) of the parent drug was assayed by fitting the natural logarithm of the percentage elimination of the parent drug linearly with time.
The in vitro half-life (t1/2) was calculated by slope: t1/2 = 0.693 / k
The in vitro clearance (in µL/min/mg) was calculated using the following formula: CLint =0.693/ t1/2 * (Incubation system volume (μL) / protein content (mg)) [formula]
Table 3 the experimental results of human liver microsome of the compounds provided in some examples of the present invention

For data set [2], the target named is T1, GLP-1 receptor (Homo sapiens, UniProt P43220).
T1 construct: host or cells: HEK293
T1 sequence (P43220 24-463): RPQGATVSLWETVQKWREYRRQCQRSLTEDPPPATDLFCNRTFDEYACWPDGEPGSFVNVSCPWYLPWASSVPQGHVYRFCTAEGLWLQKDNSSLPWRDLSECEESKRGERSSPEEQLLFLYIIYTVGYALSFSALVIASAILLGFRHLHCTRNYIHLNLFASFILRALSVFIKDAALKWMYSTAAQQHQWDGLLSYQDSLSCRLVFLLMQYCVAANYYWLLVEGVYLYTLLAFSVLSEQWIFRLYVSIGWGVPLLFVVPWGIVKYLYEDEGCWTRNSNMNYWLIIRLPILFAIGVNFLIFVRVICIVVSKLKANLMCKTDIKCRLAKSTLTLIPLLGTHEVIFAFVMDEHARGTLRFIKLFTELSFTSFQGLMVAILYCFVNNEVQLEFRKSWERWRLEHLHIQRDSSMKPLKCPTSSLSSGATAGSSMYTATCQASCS
The data set is described as follows: cAMP detection assay of agonistic effect in HEK293 cells with high expression of hGLP-1R. The data set is classed as cell-based. Here is the method:
The cells were constructed by Wuxi New Drug Development Co., Ltd. Shanghai.
The compound was prepared with DMSO to a working concentration of 100µM or 10µM. 10 points of 4-fold dilution (maximum concentration of 1000nM or 100nM after dilution) was done with Bravo V11.
The compound to be tested was diluted 4 times with Bravo to obtain 10 concentrations and the initial concentration was 100µM by Bravo V11. The initial concentration was 100µM.

A short description of data set [3]: Pharmacokinetic study in rats (intravenous or gavage, plasma LC-MS/MS). The class given is in vivo. Conditions: SD rats; for F: po 5 mg/kg versus iv 1 mg/kg; for AUC(0-t) / Cmax / Tmax / half-life: rat, plasma. The procedure:
SD rats: male, 6-8 weeks old, weighing 200-300 g, purchased from SPF ( Beijing ) Biotechnology Co.,Ltd..
At each PK sampling point, 200 µL of whole blood was collected into EDTA-K2 anticoagulant blood tubes and centrifuged at 4°C for 30 min to obtain plasma. Whole blood samples were placed on wet ice before centrifugation. All collected plasma samples were stored on dry ice or frozen until analyzed.
Approximately1 mg of the compound of the present application was weighed and dissolved in DMSO, vortexed and sonicated to obtain a 1 mg/mL standard stock solution. The standard stock solution was diluted with 50% aqueous acetonitrile to obtain standard working solutions with concentrations of 5, 10, 20, 50, 100, 500, 1000, 5000 and 10000 ng/mL. QC working solutions with concentrations of 10, 20, 500 and 8000 ng/mL were prepared using the same dilution method. These QC samples were prepared on the day of analysis in the same way as the standard curve samples.5 µL of standard working solution with concentrations of (5, 10, 20, 50, 100, 500, 1000, 5000 and 10000 ng/mL) was added to 50 µL of blank SD rat plasma to obtain a total volume of 55 µL with concentrations of 0.5-1000 ng/mL (0.5, 1, 2, 5, 10, 50, 100, 500, and 1000 ng/mL) of standard curve samples. QC samples with concentrations of (1 ng/ml (low-1) and 2 ng/ml (low-2), 50 ng/ml (medium), 800 ng/ml (high)) were configured separately.
55 µL of standard samples, 55 µL of QC samples or 55 µL of unknown samples (50 µL of plasma samples added to 5 µL of 50% aqueous acetonitrile) were added to 200 µL of acetonitrile containing an internal standard (dexamethasone) to precipitate proteins. […] The supernatant was taken and diluted 3-fold with water, and 5 µL of the supernatant dilution was injected into the LC-MS/MS system for quantitative analysis under the following assay conditions:
Column: HALO 90A Phenly-Hexyl, 2µm 2.1×30mm.
Pharmacokinetic parameters were calculated by the […] of Phoenix TM Winnonlin® 8.3 software.

Like-named read-outs stand apart in the source and are kept apart here.

A word on the half-life: it is the time in which the quantity being followed falls by half. In general, EC50 refers to the concentration giving half of the maximal effect. One may read the AUC(0-t) as the area under the concentration-time curve up to a stated or last time point. In general, Cmax refers to the peak of the concentration-time curve. The term Tmax denotes the time at which the peak concentration occurs.

`O=C(O)c1ccc2nc(CC3CC=C(c4cccc(OCc5ccc(Cl)c6cc(F)oc56)n4)CC3)n(C[C@@H]3CCO3)c2c1` (stereo partly drawn) [Compound 2, 2-((4-(6-((4-chloro-2-fluorobenzofuran-7-yl)methoxy)pyridin-2-yl)cyclohex-3-en-1-yl)methyl)-1-(((S)-oxetan-2-yl)methyl)-1H-benzo[d]imidazole-6-carboxylic acid]: the half-life at 1 µM in data set [1] amounted to 2.27 h. Further, the EC50 in data set [2] (agonistic effect, cAMP, HEK293 cells with high expression of hGLP-1R, read-out: EC50) came to 0.23 nM. For the same compound, in data set [3], the F was 31.8%. Besides, in data set [3] (male, iv, 1 mg/kg), the AUC(0-t) was 1240 ng·h/mL, the Cmax was found to be 2300 ng/mL, the time to peak (Tmax) came to 0.083 h and the half-life is 1.15 h. For the same compound, in data set [3] (male, po, 5 mg/kg), the AUC(0-t) worked out at 1960 ng·h/mL, the Cmax is 754 ng/mL, the Tmax was 1 h and the half-life is 2.56 h.

The compound `O=C(O)c1ccc2nc(C[C@H]3CC[C@H](c4cccc(OCc5ccc(Cl)c6cc(F)oc56)n4)CC3)n(C[C@@H]3CCO3)c2c1` [Compound 27B, 2-(((1r,4S)-4-(6-((4-chloro-2-fluorobenzofuran-7-yl)methoxy)pyridin-2-yl)cyclohexyl)methyl)-1-(((S)-oxetan-2-yl)methyl)-1H-benzo[d]imidazole-6-carboxylic acid] registered a half-life at 1 µM in data set [1] of 1.7 h. Further, in data set [2], the EC50 was determined as 0.17 nM. In data set [3], the F worked out at 44.4%. In data set [3] (iv, 1 mg/kg), the AUC(0-t) is 1680 ng·h/mL, the peak level (Cmax) was 2830 ng/mL, the Tmax amounted to 0.083 h and the half-life was 0.707 h. Also, in data set [3] (po, 5 mg/kg), the AUC(0-t) was 3670 ng·h/mL, the Cmax was found to be 1160 ng/mL, the Tmax was determined as 0.833 h and the half-life was 4.18 h.

The values are drawn from patent EP4491625A1, “BENZO BICYCLIC COMPOUND, AND PREPARATION METHOD AND APPLICATION THEREOF” (Guangzhou Unirise Pharmaceutical Co., Ltd., priority 2022, dated 2023).
